Test results published in US20120107239A1, “Precursor of Molecular Probe for Pancreatic Islet Imaging and Use of the Same” (priority 2009, published 2012).

Experiments:
[1] = target: T1, SU receptor (Mus musculus, UniProt B2RUS7); assay: SU receptor binding experiment ([3H]-glibenclamide displacement on dispersed pancreatic islet cells); set-up: species or system mice
T1 construct: the pancreatic islets isolated from the mice were dispersed into single cells; from tissue; host or cells: single cells dispersed from isolated mouse pancreatic islets
Description: Next, the pancreatic islets isolated from the mice were dispersed into single cells to prepare 1.7×10^5 cells/sample. A solution containing [^3H]-glibendamide; which was obtained by labeling glibenclamide (4-[2-(5-Chloro-2-methoxybenzoylammo)ethyl]-N-(cyclohexylcarbamoyl)benzenesulfon amide, serving as an SU agent) with ^3H, was added to these cells so that the final concentration of the [^3H]-glibenclamide was 1.85 pmol/L. Subsequently, a reagent containing the compound (7) was added (final concentration of the compound (7): 1×10^−4 to 1×10^−12 M), and incubation was performed at room temperature for 1 hour. The reaction was stopped by filtration, and the radioactivity was measured with a liquid scintillation analyzer.
Therefore, the molecular probe expressed as the formula (7) might have a SUR1 binding site.

[2] = tested on: pancreatic islets; assay: Three-dimensional imaging (PET) of a mouse; format: in vivo; settings: 104 μCi intravenously, ddy mouse, image 10 minutes after administration, FIG. 3
Description: The molecular probe (compound (6)) was used to perform three-dimensional imaging of a mouse. The molecular probe (104 μCi) was administered intravenously to a 6-week-old ddy mouse (which was male and weighted 25 g) under anesthesia. Then, the three-dimensional imaging was performed with the following PET apparatus and conditions.
Imaging apparatus: eXplore Vista (product name, manufactured by General Electric Company)
Imaging method: Static Scan
Reconstruction: 2DOSEM (Dynamic OS-EM)
The image in FIG. 3 was taken 10 minutes after the administration of the molecular probe (integrating time: 10 minutes). In FIG. 3, the portion indicated by the white circle is near the pancreas.

[3] = target: SUR1 (Homo sapiens, UniProt Q09428); settings: compared with nateglinide; cited from earlier work
Chain of SUR1 (Q09428 whole entry, species assumed): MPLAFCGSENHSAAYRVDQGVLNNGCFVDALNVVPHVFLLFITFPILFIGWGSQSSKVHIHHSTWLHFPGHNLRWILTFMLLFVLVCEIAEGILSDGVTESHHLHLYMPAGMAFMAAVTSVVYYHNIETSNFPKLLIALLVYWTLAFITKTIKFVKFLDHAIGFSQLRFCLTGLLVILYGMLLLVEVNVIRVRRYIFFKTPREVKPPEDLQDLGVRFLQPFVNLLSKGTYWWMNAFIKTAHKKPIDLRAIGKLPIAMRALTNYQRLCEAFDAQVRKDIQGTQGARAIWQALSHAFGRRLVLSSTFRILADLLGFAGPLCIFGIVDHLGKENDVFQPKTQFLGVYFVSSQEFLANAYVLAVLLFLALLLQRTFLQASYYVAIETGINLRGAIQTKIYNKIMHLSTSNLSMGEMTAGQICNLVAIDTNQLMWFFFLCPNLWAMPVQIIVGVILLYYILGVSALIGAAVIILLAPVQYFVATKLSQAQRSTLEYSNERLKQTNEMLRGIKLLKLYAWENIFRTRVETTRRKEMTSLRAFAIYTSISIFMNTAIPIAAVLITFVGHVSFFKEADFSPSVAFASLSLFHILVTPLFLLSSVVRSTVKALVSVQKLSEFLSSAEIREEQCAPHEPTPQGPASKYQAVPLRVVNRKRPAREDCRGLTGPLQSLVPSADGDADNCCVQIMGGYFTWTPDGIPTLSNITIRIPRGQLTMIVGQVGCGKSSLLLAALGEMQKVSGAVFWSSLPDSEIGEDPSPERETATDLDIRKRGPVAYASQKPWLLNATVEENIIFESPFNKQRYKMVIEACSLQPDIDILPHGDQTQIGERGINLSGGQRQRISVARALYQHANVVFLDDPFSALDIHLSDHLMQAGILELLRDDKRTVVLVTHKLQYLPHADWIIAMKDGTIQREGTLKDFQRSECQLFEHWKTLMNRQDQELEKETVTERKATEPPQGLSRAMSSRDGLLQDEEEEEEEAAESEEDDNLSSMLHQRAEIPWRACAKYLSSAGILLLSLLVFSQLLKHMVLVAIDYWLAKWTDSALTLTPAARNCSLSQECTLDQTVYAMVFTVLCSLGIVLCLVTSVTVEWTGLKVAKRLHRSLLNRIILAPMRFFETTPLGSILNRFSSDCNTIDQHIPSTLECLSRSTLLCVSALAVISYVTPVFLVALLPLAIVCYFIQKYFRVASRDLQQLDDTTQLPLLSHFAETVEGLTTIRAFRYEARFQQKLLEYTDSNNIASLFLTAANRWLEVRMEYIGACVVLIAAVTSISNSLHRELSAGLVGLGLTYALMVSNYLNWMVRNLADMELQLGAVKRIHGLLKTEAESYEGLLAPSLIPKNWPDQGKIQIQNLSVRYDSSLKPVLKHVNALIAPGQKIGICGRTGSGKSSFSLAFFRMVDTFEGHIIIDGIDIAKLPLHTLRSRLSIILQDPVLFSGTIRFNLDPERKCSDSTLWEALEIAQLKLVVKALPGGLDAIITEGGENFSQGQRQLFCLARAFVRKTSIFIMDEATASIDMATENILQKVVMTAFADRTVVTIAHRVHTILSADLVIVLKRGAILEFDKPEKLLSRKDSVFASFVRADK
Chain of SUR1 (Q14654 whole entry partner, species assumed): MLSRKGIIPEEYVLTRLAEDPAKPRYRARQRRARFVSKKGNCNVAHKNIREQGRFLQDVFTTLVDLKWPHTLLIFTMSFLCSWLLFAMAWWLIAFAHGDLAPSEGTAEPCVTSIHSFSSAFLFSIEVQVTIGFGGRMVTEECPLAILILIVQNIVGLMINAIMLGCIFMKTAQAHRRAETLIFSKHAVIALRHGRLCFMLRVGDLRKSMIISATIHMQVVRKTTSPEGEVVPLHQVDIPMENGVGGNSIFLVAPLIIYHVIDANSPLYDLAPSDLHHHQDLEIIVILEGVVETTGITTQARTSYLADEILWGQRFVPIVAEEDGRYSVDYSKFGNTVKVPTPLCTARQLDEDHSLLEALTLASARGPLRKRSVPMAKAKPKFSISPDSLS

T1 sequence (B2RUS7 1-1588): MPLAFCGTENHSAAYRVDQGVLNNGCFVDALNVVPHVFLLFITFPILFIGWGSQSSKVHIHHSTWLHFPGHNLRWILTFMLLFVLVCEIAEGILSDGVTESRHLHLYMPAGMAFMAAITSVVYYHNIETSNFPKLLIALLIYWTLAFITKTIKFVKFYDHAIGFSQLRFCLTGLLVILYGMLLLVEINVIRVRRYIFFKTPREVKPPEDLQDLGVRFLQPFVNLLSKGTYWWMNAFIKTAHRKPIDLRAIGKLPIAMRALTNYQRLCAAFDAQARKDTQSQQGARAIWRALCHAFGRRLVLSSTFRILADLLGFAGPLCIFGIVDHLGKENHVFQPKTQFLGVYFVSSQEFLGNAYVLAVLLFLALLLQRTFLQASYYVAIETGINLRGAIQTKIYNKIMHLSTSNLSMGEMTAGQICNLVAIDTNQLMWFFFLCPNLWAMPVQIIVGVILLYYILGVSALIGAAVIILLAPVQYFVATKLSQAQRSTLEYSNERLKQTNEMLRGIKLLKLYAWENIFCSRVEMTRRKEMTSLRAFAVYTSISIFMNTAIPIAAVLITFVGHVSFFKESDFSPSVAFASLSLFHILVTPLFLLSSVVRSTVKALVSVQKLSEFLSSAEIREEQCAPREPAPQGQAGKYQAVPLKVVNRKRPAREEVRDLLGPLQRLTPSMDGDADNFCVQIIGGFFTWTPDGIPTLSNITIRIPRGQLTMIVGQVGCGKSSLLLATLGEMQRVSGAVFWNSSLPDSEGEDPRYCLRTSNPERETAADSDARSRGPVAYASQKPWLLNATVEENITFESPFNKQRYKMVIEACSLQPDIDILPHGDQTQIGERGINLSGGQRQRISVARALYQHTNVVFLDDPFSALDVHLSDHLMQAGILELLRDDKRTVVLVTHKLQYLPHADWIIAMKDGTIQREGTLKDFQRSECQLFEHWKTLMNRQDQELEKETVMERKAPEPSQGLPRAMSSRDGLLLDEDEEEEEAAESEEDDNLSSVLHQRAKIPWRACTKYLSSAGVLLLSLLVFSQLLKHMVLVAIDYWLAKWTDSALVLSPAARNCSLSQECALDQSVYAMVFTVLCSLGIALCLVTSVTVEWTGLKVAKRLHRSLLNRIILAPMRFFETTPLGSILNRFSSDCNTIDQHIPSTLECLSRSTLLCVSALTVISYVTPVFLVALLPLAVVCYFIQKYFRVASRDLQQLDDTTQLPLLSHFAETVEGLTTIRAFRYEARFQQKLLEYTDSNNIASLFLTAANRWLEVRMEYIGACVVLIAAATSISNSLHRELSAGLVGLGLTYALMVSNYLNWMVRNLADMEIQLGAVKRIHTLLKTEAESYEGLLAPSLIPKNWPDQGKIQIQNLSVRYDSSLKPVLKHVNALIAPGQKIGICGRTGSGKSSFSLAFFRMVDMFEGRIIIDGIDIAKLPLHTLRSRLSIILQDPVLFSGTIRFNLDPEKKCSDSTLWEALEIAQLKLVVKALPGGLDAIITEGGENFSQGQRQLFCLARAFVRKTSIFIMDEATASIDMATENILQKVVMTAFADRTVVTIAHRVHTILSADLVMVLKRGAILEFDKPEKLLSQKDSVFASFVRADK
T1 sequence (Q61743 whole entry partner): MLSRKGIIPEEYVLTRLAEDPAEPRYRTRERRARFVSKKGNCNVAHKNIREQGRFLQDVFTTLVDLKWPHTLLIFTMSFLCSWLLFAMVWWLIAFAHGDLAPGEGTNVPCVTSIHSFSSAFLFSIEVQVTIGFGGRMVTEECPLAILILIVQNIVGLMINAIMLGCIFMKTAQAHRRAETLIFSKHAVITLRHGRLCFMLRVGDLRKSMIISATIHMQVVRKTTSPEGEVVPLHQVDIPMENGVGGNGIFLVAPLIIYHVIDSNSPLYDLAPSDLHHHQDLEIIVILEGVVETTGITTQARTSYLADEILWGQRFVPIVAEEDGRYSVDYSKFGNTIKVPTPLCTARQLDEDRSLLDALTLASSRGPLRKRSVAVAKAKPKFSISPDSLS

With `O=C(O)[C@H](CC(=O)N1C[C@H]2CCCC[C@H]2C1)Cc1ccc(OCCF)cc1` [compound (7)] the “inhibition of the bond between the SU receptor and [3H]-glibenclamide” value ([1]; compound 1×10^−4 to 1×10^−12 M, FIG. 2) was “inhibited the bond between the SU receptor and the [^3H]-glibenclamide in the concentration-dependent manner” and the EC50 ([1]; inhibition of [3H]-glibenclamide (1.85 pmol/L) binding, mouse islet cells 1.7×10^5 cells/sample, room temperature, 1 hour) was 23.5 nM.
With `O=C(O)C(CC(=O)N1C[C@H]2CCCC[C@H]2C1)Cc1ccc(OCC[18F])cc1` (stereo partly shown) [compound (6)] the “PET imaging result (distinguishing the pancreas)” value [2] was “the approximate position of the pancreas could be distinguished noninvasively”.
In the case of `O=C(O)[C@H](CC(=O)N1C[C@H]2CCCC[C@H]2C1)Cc1ccccc1` [mitiglinide, (+)-monocalcium bis [(2S, 3a, 7a-cis)-α-benzylhexahydro-γ-oxo-2-isoindolinebutyrate]dihydrate], the “selectivity for SUR1 in vitro relative to nateglinide” value [3] is given as “about 100 times”.
